Results from article PMC6163455 (Biomolecules, 2018).

Key:
CHO-K1 cells [1] = test: live-cell confocal microscopy of β-lactamase internalization; type: cell-based, Chinese hamster; details: 4 µM conjugate with SpyC_BLA or unconjugated SpyC_BLA, 2 h, CCF2-AM 2 µM 1 h, Figure 2a–f
Protocol: (§1) Figure 2 Live-cell confocal microscopy visualizes CPP-mediated β-lactamase internalization. The CPP-mediated uptake of CPP_SpyT/SpyC_BLA conjugates (4 µM) was visualized in CHO-K1 cells (a–f) and T47D cells (g–n). SpyC_BLA was conjugated to CPP_SpyT peptides. […] The degree of uptake is CPP-dependent and visualized by blue fluorescing cells. Bar scale is 50 µm (a–j) or 14.6 µm (k–n).
(§2) Cells were seeded (CHO-K1, 37,500 cells/mL; T47D 37,500 cells/mL) onto 4-well ibiTreat chamber slides (Thermo Fisher Scientific) and incubated for 48 h at 37 °C, 5% CO2. The medium was removed and replaced with medium containing SpyC_BLA/CPP_SpyT conjugated or unconjugated SpyC_BLA proteins and cells were incubated for 2 h at 37 °C, 5% CO2. After incubation, the cells were washed to remove any SpyC_BLA protein that had not internalized, loaded with substrate CCF2-AM (2 µM final concentration in media containing 1% FCS), and incubated for 1 h at room temperature. Live cells were visualized through confocal microscopy. Images were collected using a Nikon C2 Confocal Microscope through a 40× differential interference contrast (DIC) objective after excitation by a 408 nm laser. Bar scales in images represent 50 µm or 14.6 µm (zoom magnification 3.4×).

T47D cells [2] = test: as above; type: cell-based, human; details: 4 µM conjugate with SpyC_BLA or unconjugated SpyC_BLA, 2 h, CCF2-AM 1 h, Figure 2g–n
Protocol: as §1, §2

CHO-K1 cells [3] = test: β-lactamase internalization assay (CCF2-AM, flow cytometry); type: cell-based, Chinese hamster
Protocol: The β-lactamase internalization assay is based on the simple principle that CPP-dependent intracellular delivery of recombinant β-lactamase protein can be detected by cleavage of the CCF2 substrate in the cytosol (Figure 1a). In brief, CPP sequences and the β-lactamase cargo protein can be brought together by conjugation or can be recombinantly expressed as a CPP_β-lactamase (CPP_BLA) fusion (Figure 1a, step i). The CPP_BLA protein fusions or conjugates are incubated on cells, which are then washed to remove excess protein that has not internalized (Figure 1a, step ii). The cells are incubated further (i.e., loaded) with the CCF2-AM cell-permeable dye for 1 h (Figure 1a, step iii). […] This reaction is measured as a shift in fluorescent signal from green to blue. […]
(§3) To validate the assay, we first used a conjugation approach based on the SpyTag (SpyT) peptide/SpyCatcher (SpyC) protein ligation technology. […] Protein conjugates were incubated on CHO-K1 or T47D cells, measuring the fluorescence shift as percentage of blue fluorescent CHO-K1 or T47D cells after 1 h (Figure 1b,c, respectively). […]
The two phylomer CPPs with the strongest β-lactamase internalization signal and the canonical CPP TAT (positive control) were expressed as direct fusions with β-lactamase (CPP_BLA proteins; sequences in Table A2). […]

T47D cells [4] = test: as above; type: cell-based, human; details: CPP_SpyT/SpyC_BLA conjugates or unconjugated SpyC_BLA, 1 h at 37 °C, CCF2-AM 1 µM, Figure 1c, No CPP control n = 3
Protocol: The β-lactamase internalization assay is based on the simple principle that CPP-dependent intracellular delivery of recombinant β-lactamase protein can be detected by cleavage of the CCF2 substrate in the cytosol (Figure 1a). In brief, CPP sequences and the β-lactamase cargo protein can be brought together by conjugation or can be recombinantly expressed as a CPP_β-lactamase (CPP_BLA) fusion (Figure 1a, step i). The CPP_BLA protein fusions or conjugates are incubated on cells, which are then washed to remove excess protein that has not internalized (Figure 1a, step ii). The cells are incubated further (i.e., loaded) with the CCF2-AM cell-permeable dye for 1 h (Figure 1a, step iii). Once inside the cell, CCF2-AM is converted by endogenous cytoplasmic esterases to CCF2, which is retained in the cytosol. In cells where β-lactamase has internalized through CPP activity, CCF2 is cleaved by β-lactamase (Figure 1a, step iv). This reaction is measured as a shift in fluorescent signal from green to blue. […]
as §3

CHO-K1 cells [5] = test: cell fractionation and anti-β-lactamase immunoblotting; type: cell-based, Chinese hamster; details: 8 µM, 1.5 h at 37 °C, digitonin cytosol extraction, 4 µg aliquots, anti-β-lactamase antibody, Figure S1
Protocol: Supplementary Information
Supplementary Figures: β-Lactamase Tools for Establishing Cell Internalization and Cytosolic
Delivery of Cell Penetrating Peptides
Figure S1. Verification of cell penetrating peptides (CPP)-mediated β-lactamase internalization by immunoblotting. MW: molecular weight.
Aliquots (4 µg) of cytosolic and membrane soluble CHO-K1 cell fractions from β-lactamase assays were separated by sodium dodecyl sulfate–polyacrylamide gel electrophoresis (SDS-PAGE) through a 4-12% (w/v) polyacrylamide Bis-Tris gel, transferred to polyvinylidene difluoride (PVDF) membrane, and immunoblotted. β-lactamase conjugated (e.g., 1746_SpyT/SpyC_BLA) or fused (e.g., 1746_BLA recombinant) to 1746c27 and 1746 Phylomer cell penetrating peptides (CPPs) was detected in the cytosolic fraction to varying extents, while TAT-conjugated β-lactamase was predominantly detected in the membrane fraction of cell lysates. […]
delivered into the cytosol by the 1746 CPP. Internalization of unconjugated SpyC_BLA protein was not detected, either on its own (SpyC_BLA (no CPP)) or in the presence of 1746c27 peptide (1746c27, SpyC_BLA), illustrating there is no bystander uptake effect. […]
Aliquots of extracted fractions (4 µg) were separated through a 4–12% Bis-Tris gel (Invitrogen, Carlsbad, CA, USA). Protein expression in the fractions was detected using monoclonal anti-β- […]

Substance: RKQKSLQTKLAENPPVPRKKRQSRPRWKQWLQKGASAHIVMVDAYKPTKG [0084_SpyT, phylomer CPP 0084 synthesized as SpyTag fusion]
- uptake of SpyC_BLA visualized by blue fluorescing cells (CHO-K1 cells [1]): enabled CPP-dependent uptake of SpyC_BLA

Substance: GRKKRRQRRRGASAHIVMVDAYKPTKG [TAT_SpyT, reference compound]
- uptake of SpyC_BLA visualized by blue fluorescing cells (CHO-K1 cells [1]): enabled CPP-dependent uptake of SpyC_BLA
- uptake of SpyC_BLA visualized by blue fluorescing cells (T47D cells [2]): enabled CPP-dependent uptake of SpyC_BLA

Substance: SpyC_BLA: recombinantly expressed SpyCatcher_β-lactamase protein; unconjugated it is the 'No CPP' negative control
- internalization of CPP-conjugated SpyC_BLA (percentage of blue viable cells) (CHO-K1 cells [3]; CPP_SpyT/SpyC_BLA conjugates or unconjugated SpyC_BLA, 0.5–4 µM, 1 h at 37 °C, CCF2-AM 2 µM, Figure 1b, No CPP control n = 7): does not internalize
- internalization of recombinantly expressed CPP_β-lactamase fusion protein (percentage of blue viable cells) (CHO-K1 cells [3]; recombinant CPP_BLA fusion proteins, SpyC_BLA as negative control, Figure 1d): does not internalize
- internalization of CPP-conjugated SpyC_BLA (percentage of blue viable cells) (T47D cells [4]): does not internalize
- uptake of SpyC_BLA visualized by blue fluorescing cells (CHO-K1 cells [1]): minimal evidence of internalization
- uptake of SpyC_BLA visualized by blue fluorescing cells (T47D cells [2]): minimal evidence of internalization
- β-lactamase detected in cytosolic and membrane cell fractions (immunoblot) (CHO-K1 cells [5]): not detected

Substance: KKKKQPPKPKKPKTQEKKKKQPPKPKRGASAHIVMVDAYKPTKG [1746c27_SpyT, phylomer CPP 1746c27 synthesized as SpyTag fusion]
- uptake of SpyC_BLA visualized by blue fluorescing cells (CHO-K1 cells [1]): enabled CPP-dependent uptake of SpyC_BLA
- uptake of SpyC_BLA visualized by blue fluorescing cells (T47D cells [2]): enabled CPP-dependent uptake of SpyC_BLA

Substance: PLTQRTLQRGKKPKQRQNWKKARTSSAKTAPKTVVSRTTSQRKGASAHIVMVDAYKPTKG [0169_SpyT, phylomer CPP 0169 synthesized as SpyTag fusion]
- uptake of SpyC_BLA visualized by blue fluorescing cells (CHO-K1 cells [1]): enabled CPP-dependent uptake of SpyC_BLA

Substance: PLKPKKPKTQEKKKKQPPKPKKPKTQEKKKKQPPKPKRGASAHIVMVDAYKPTKG [1746_SpyT, phylomer CPP 1746 synthesized as SpyTag fusion]
- uptake of SpyC_BLA visualized by blue fluorescing cells (CHO-K1 cells [1]): enabled CPP-dependent uptake of SpyC_BLA
- uptake of SpyC_BLA visualized by blue fluorescing cells (T47D cells [2]): enabled CPP-dependent uptake of SpyC_BLA
